Measurements published in US7858800B2, “Biaryl derivatives” (Banyu Pharmaceutical Co., Ltd., priority 2004, dated 2010).
pIC50: −log10 of the molar value.

How the values were obtained:
[1] = molecular target: T1, human metabotropic glutamic acid receptor 1a (mGluR1a) (Homo sapiens, UniProt Q13255); assay: mGluR1-inhibiting action: calcium concentration in CHO cells expressing mGluR1a (FLIPR); type: cell-based; settings: suppression of rise in calcium raised by 10 μM glutamic acid, test compound added 5 minutes before agonist
T1 construct: expressed in transfected cells
Description: cDNA of human metabotropic glutamic acid receptor 1a (mGluR1a) was transfected to CHO cells using Lipofectamine (manufactured by Gibco BRL) to give a strain which stably expresses mGluR1a. The CHO cells in which mGluR1a was expressed were incubated in a DMEM medium containing 10% of dialyzed fetal bovine serum, 1% of proline, 100 units/ml of penicillin, 0.1 mg/ml of streptomycin sulfate and 2 mM of glutamine.
On the day before the measurement, 4 μM Fluo-3 was incubated in a CO2 incubator for 1 hour to the CHO cells where mGluR1a was expressed being plated with 50,000 cells per well of a 96-well black plate (View Plate manufactured by Packard). After that, the cells were washed for four times with an HBSS solution containing 20 mM of HEPES and 2.5 mM of Probenecid and then calcium concentration in the cells was measured using a Fluorescence Imaging Plate Reader (FLIPR, manufactured by Molecular Device). Incidentally, the test compound and glutamic acid were prepared using an HBSS solution containing 20 mM HEPES and 2.5 mM Probenecid. The test compound was added before 5 minutes of the stimulation with an agonist and, with regard to the agonist, 10 μM glutamic acid was used.

Male ICR (CD-1) mice = assay: Suppressive action on autonomic momentum (behavior quantity) in mice increased by methamphetamine; type: in vivo; settings: compound 10 mg/kg intraperitoneally 30 minutes before methamphetamine 2 mg/kg subcutaneous, behavior quantity during 60 minutes
Description: Suppressive Action of the Compound to Autonomic Momentum in Mice which Increases by Methamphetamine
Male ICR (CD-1) mice (20 to 40 g) were used and behavior quantity was measured using a behavior quantity measuring device (manufactured by Neuroscience) where movement of animals is perceived by an infrared sensor. A compound or an appropriate solvent was administered to a mouse and, after 30 minutes, a physiological saline solution or methamphetamine was administered. Behavior quantities immediately after that and until 60 minutes thereafter were measured. Difference between the behavior quantity of the methamphetamine-administered group and that of the solvent-administered group during the measuring period was defined as 100% and evaluation was conducted by expressing the inhibitory % in behavior quantity of the test-compound-administered group.

rats = assay: Suppressive action on pre-pulse inhibition (PPI) decreased by methamphetamine, startle reaction of rats; type: in vivo, rat; settings: compound orally 1 to 10 mg/kg 30 minutes before methamphetamine 3 mg/kg, significant suppressive action on decreased PPI
Description: Suppressive Action of the Compound to Pre-Pulse Inhibition which Decreases by Methamphetamine)
Investigation was also carried out in a test system of a pre-pulse inhibition where action of antipsychotic agents is able to be specifically detected. A startle reaction being stimulated by combining sonic stimulations of […] and 72 dB (pre-pulse) prior to pulse stimulation and startle reaction to sonic stimulation of 120 dB (pulse stimulation) in the presence of a back sound of 60 dB was measured using a startle reaction measuring device which perceives the body movement of rats (manufactured by San Diego Instrument). The compound of the present invention or an appropriate solvent was administered to a rat and, after 30 minutes, a physiological saline solution of 3 mg/kg of methamphetamine was administered whereupon measurement of a startle reaction was carried out. The startle reactions upon the pulse stimulation and in the presence of pre-pulse were defined as A and B, respectively and values of pre-pulse inhibition (hereinafter, referred to as PPI) were calculated from the following formula.
Method for calculation of PPI: PPI(%)=100×(A−B)/A
When a pre-treatment with methamphetamine was conducted, the startle reaction attenuated to an extent of only about 20% whereby a reduction in pre-pulse inhibition was noted. In the present model, lowering of pre-pulse inhibition by methamphetamine tends to be recovered when a compound having an mGluR1 antagonistic action was orally administered (1 to 10 mg/kg) 30 minutes before the administration of methamphetamine.

T1 sequence (Q13255 19-1194): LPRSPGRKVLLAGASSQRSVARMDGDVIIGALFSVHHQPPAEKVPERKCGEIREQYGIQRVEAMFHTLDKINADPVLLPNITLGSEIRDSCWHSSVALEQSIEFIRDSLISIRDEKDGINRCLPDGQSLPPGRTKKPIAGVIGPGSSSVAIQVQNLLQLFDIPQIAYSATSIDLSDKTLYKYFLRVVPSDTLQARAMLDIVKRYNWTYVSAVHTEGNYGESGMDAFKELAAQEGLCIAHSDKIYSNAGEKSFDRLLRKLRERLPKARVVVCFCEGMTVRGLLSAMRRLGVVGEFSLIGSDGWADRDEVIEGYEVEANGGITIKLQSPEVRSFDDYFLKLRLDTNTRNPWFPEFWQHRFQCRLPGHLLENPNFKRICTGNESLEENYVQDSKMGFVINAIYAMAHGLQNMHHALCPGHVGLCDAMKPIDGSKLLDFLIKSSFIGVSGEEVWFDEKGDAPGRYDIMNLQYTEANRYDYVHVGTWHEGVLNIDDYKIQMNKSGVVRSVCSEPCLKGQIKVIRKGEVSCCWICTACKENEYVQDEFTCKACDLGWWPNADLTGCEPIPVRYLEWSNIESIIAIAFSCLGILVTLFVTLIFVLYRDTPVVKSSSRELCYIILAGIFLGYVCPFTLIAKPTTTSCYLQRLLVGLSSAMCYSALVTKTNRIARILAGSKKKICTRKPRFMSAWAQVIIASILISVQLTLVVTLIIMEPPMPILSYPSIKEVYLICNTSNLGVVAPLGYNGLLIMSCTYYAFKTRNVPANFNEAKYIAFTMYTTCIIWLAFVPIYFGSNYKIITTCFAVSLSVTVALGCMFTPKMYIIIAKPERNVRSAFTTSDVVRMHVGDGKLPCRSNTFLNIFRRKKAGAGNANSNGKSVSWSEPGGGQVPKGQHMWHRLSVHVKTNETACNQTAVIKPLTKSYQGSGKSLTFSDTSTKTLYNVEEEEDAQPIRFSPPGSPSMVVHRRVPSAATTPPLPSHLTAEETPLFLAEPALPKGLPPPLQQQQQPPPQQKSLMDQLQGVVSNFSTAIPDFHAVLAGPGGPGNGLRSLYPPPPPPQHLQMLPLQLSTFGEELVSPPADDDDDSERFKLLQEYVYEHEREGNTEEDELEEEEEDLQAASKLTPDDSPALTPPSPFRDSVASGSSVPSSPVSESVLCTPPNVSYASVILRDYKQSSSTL

| Structure (SMILES) | pIC50 [1] | Motility Quantity (Suppressive %) (Male ICR (CD-1) mice) [%] | Inhibition Effect to PPI Disorder (rats) |
| --- | --- | --- | --- |
| Cc1c(C2=CCN(C(=O)OC(C)C)CC2)nnn1-c1cccnc1Cl [Example 42, Isopropyl 4-[1-(2-chloropyridin-3-yl)-5-methyl-1H-[1,2,3]-triazol-4-yl]-1,2,3,6-tetrahydropyridine-1-carboxylate] | 8.17 | >80 | yes |
| Cc1c(C2=CCN(C(=O)OC(C)C)CC2)nnn1-c1ccc(F)nc1 [Example 43, Isopropyl 4-[1-(2-fluoropyridin-5-yl)-5-methyl-1H-[1,2,3]triazol-4-yl]-1,2,3,6-tetrahydropyridine-1-carboxylate] | 8.17 | >80 | yes |
| Cc1c(C2=CCN(C(=O)N(C)C(C)C)CC2)nnn1-c1cccnc1Cl [Example 84] | – | >80 | – |
| Cc1c(C2=CCN(C(=O)N(C)C(C)C)CC2)nnn1-c1cccnc1F [Example 82, 4-[1-(2-Fluoropyridin-3-yl)-5-methyl-1H-[1,2,3]-triazol-4-yl]-1,2,3,6-tetrahydropyridine-1-carboxylic acid isopropylmethylamide] | – | – | yes |
